Data set [1] concerns the target T1, hURAT1 Transporter (Homo sapiens, UniProt Q96S37).
T1 construct: Full-length human URAT1 gene (SLC22A12) was subcloned from plasmid pCMV6-XL5 (Origene)
T1 sequence (Q96S37 1-553): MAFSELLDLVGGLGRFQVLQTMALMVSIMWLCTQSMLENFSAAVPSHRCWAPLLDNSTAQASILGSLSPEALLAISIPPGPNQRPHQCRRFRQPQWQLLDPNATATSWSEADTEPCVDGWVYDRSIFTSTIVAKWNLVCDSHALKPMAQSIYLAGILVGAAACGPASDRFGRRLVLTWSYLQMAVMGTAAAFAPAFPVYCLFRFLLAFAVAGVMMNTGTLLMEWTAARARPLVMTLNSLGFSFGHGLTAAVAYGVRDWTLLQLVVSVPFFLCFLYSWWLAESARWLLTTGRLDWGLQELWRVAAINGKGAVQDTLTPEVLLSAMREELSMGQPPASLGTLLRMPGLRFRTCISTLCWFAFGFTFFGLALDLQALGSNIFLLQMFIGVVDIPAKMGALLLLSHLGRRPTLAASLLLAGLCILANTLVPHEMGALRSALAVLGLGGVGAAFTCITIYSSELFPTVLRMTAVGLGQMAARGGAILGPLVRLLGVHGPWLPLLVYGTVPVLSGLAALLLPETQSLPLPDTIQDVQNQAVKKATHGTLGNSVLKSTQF
The experiment in a line: Uric Acid Uptake Assay (14C-uric acid uptake in HEK293/urat1 cells). In kind it is cell-based. To be noted: 40 μM C14 uric acid, 10 minutes at room temperature. From the text:
Creation of Stable Cell Lines Expressing hURAT1 Transporter: Full-length human URAT1 gene (SLC22A12) was subcloned from plasmid pCMV6-XL5 (Origene) into eukaryotic expression plasmid pCMV6/Neo (Origene) using Not I restriction sites. Gene sequencing confirmed the sequence of hURAT1 as outlined in Genbank (Accession #NM_144585.2). HEK293 human embryonic kidney cells (ATCC #CRL-1573) were propagated in EMEM tissue culture medium as described by ATCC in an atmosphere of 5% CO2 and 95% air. Transfections of HEK293 cells with the pCMV6/Neo/URAT1 construct were performed using L2000 transfection reagent (Invitrogen) as described by the manufacturer. After 24 h the transfected cells were split into 10 cm tissue culture plates and grown for 1 day after which the medium was replaced with fresh growth medium containing G418 (Gibco) at 0.5 mg/ml final concentration. Drug-resistant colonies were selected after approximately 8 days and then tested for ^14C-uric acid transport activity. The HEK293/urat1 cells are plated on Poly-D-Lysine Coated 96-well Plates at a density of 75,000 cells per well.
Cells were grown overnight (20-26 hours) at 37° C. in an incubator. Plates were allowed to come to room temperature and media was washed out with one wash of 250 μl of Wash Buffer (125 mM Na Gluconate, 10 mM Hepes ph 7.3). Compound or vehicle is added in assay buffer with C14 Uric Acid for a final concentration of 40 μM Uric Acid with a specific activity of 54 mCi/mmol. Assay Buffer is 125 mM Sodium Gluconate, 4.8 mM Potassium Gluconate, 1.2 mM Potassium phosphate, monobasic, 1.2 mM magnesium sulfate, 1.3 mM Ca Gluconate, 5.6 mM Glucose, 25 mM HEPES, pH 7.3. Plates were incubated at room temperature for 10 minutes then washed 3 times with 50 μl Wash Buffer and 3 times with 250 μl Wash Buffer. Microscint 20 Scintillation Fluid was added and plates were incubated overnight at 45° C. to equilibrate. Plates are then read on the TopCount Plate Reader and an EC50 value generated. (See Enomoto et al, Nature, 2002, 417, 447-451 and Anzai et al, J. Biol. Chem., 2004, 279, 45942-45950).
Compounds prepared as described herein, were examined according to the procedure described above and EC50 values generated. […] (N/A means data not available).

The conditions of data set [2]: background statement, in certain instances; cited from earlier work.
Data set [3] in a line: PO Dosing in Rats: urinary excretion profile. In kind it is in vivo, Male Sprague-Dawley Rats. The conditions noted are these: analyte = dosed compound itself in urine, PO 3 mg/kg, male rats. As for the experimental part:
(§1) Compounds prepared as described in examples 1, 3, 7, 8, and 9 are administered PO to Male Sprague-Dawley Rats (250 grams; 3 animals per test group). The test compounds are dissolved in aqueous sodium hydroxide solution (0.2N), brought up to volume with phosphate buffered saline to a concentration of 0.6 mg/mL, and PO administered to the animals at a concentration of 3 mg/kg (5 mL/kg). Plasma samples are removed at 0.25, 0.5, 1, 3, 6, 12 and 24 hr after initial dose and analyzed for presence of compound and possible metabolite. Urine samples are also collected and analyzed for parent compound and/or metabolite.
(§2) Note that in some instances, 2-(5-Bromo-1-(4-cyanonaphthalen-1-yl)-1H-imidazol-2-ylthio)acetic acid (eg 1) is a possible in vivo metabolite of the compounds described in examples 2-9.

Data set [4] can be described thus: PO Dosing in Rats: plasma profile. In kind it is in vivo, Male Sprague-Dawley Rats. The conditions noted are these: for Cmax / Tmax / half-life / AUC(0-t): Sprague-Dawley, rat; for Cmax / Tmax / half-life / Clast: analyte = dosed compound itself in plasma; for half-life: read-out: t½ (converted); for AUC t = 0_6, share in brackets / AUC t = 12_24, share in brackets / AUC t = _12, share in brackets: share of AUC 0_24; for AUC(0-t): male, plasma, po, 3 mg/kg. On the procedure: as §1, §2

Where [5] appears, read: footnote *: plasma, not urinary, distribution, analyte = dosed compound, PO 3 mg/kg, male rats.
Where [6] appears, read: analyte = dosed compound itself.
[7] abbreviates: analyte = dosed compound itself, PO 3 mg/kg, male rats, read-out: AUC t = 0_6.
Setting [8] is: analyte = dosed compound itself, PO 3 mg/kg, male rats, read-out: AUC t = 0_24.
Setting [9] is: analyte = dosed compound itself, PO 3 mg/kg, male rats, read-out: AUC t = 12_24.
Where [10] appears, read: analyte = dosed compound itself, PO 3 mg/kg, male rats, read-out: AUC t = _12.

SMILES strings stand for the structures. Like-named read-outs stand apart in the source and are kept apart here.

Turning to `Cc1cnc(SCC(=O)O)n1-c1ccc(N(C)C)c2c1CCCC2`, in data set [1], the half-maximal effective concentration (EC50) (as a rule, the midpoint of the concentration-response curve) is 1 to 30 µM.

Turning to `Oc1ncnc2[nH]ncc12` [Allopurinol, allopurinol], in data set [2], the “incidence of side effects, of all individuals treated with the drug” value was 20%.

As to `N#Cc1ccc(-n2c(Br)cnc2SCC(=O)O)c2ccccc12` [Example 1, 2-(5-Bromo-1-(4-cyanonaphthalen-1-yl)-1H-imidazol-2-ylthio)acetic acid], in data set [3], the “Total Urinary Excretion % of dose” value is listed as 4.2 % of dose. In data set [4] (analyte = dosed compound itself, PO 3 mg/kg, male rats), this compound returned a BA of 30%. For the same compound, in data set [4] (setting [5]), the “Plasma Distribution (%) 0-6 h” value is on record as 85* %, the “Plasma Distribution (%) 6-12 h” value was 11* % and the “Plasma Distribution (%) 12-24 h” value is 4* %. Further, the concentration for a half-maximal effect (EC50) in data set [1] lay within 0.001 to 1 µM.

For the compound `CCOC(=O)CNC(=O)CSc1ncc(Br)n1-c1ccc(C#N)c2ccccc12` [Example 2, Ethyl 2-(2-(5-bromo-1-(4-cyanonaphthalen-1-yl)-1H-imidazol-2-ylthio)acetamido)acetate], the EC50 in data set [1] is 0.001 to 1 µM.

On to `N#Cc1ccc(-n2c(Br)cnc2SCC(=O)NCC(=O)O)c2ccccc12` [Example 3, 2-(2-(5-Bromo-1-(4-cyanonaphthalen-1-yl)-1H-imidazol-2-ylthio)acetamido)acetic acid], for which, in data set [3], the “Total Urinary Excretion % of dose” value is recorded as 7 % of dose, the “Urinary Distribution (%) 0-6 h” value was found to be 74%, the “Urinary Distribution (%) 6-12 h” value is given as 20% and the “Urinary Distribution (%) 12-24 h” value is on record as 7%. Further, in data set [4] (PO 3 mg/kg, male rats), the Cmax (as a rule, the highest concentration seen after dosing) was 56.6 ng/mL; the Tmax (usually the time at which the peak concentration occurs) is 0.833 h; the half-life is 3.49 h; the Clast came out at 0.518 ng/mL. In data set [4] (setting [6]), the “AUC t = 0_6, share in brackets” value is on record as “(58%)”; the “AUC t = 12_24, share in brackets” value is reported as “(10%)”; the “AUC t = _12, share in brackets” value is recorded as “(32%)”. For the same compound, the AUC(0-t) in data set [4] (setting [7]) was determined as 145 ng·h/mL. In addition, in data set [4] (setting [8]), the AUC(0-t) is 251 ng·h/mL. The AUC(0-t) in data set [4] (setting [9]) was found to be 25.6 ng·h/mL. Moreover, in data set [4] (setting [10]), the AUC(0-t) was determined as 79.8 ng·h/mL. In data set [1], this compound returned a concentration giving a half-maximal response (EC50) of 1 to 30 µM.

Regarding `CCOC(=O)CCNC(=O)CSc1ncc(Br)n1-c1ccc(C#N)c2ccccc12` [Example 4, Ethyl 3-(2-(5-bromo-1-(4-cyanonaphthalen-1-yl)-1H-imidazol-2-ylthio)acetamido)propanoate], the EC50 in data set [1] was in the range of 0.001 to 1 µM.

Consider `CCOC(=O)[C@H](C)NC(=O)CSc1ncc(Br)n1-c1ccc(C#N)c2ccccc12` [Example 5, (2S)-Ethyl 2-(2-(5-bromo-1-(4-cyanonaphthalen-1-yl)-1H-imidazol-2-ylthio)acetamido)propanoate], for which, in data set [1], the EC50 was in the range of 0.001 to 1 µM.

For the compound `CCOC(=O)[C@@H](NC(=O)CSc1ncc(Br)n1-c1ccc(C#N)c2ccccc12)C(C)C` [Example 6, (2S)-Ethyl 2-(2-(5-bromo-1-(4-cyanonaphthalen-1-yl)-1H-imidazol-2-ylthio)acetamido)-3-methylbutanoate], in data set [1], the 50% effective concentration (EC50) lay in the range of 0.001 to 1 µM.

On to `N#Cc1ccc(-n2c(Br)cnc2SCC(=O)NCCC(=O)O)c2ccccc12` [Example 7, 3-(2-(5-bromo-1-(4-cyanonaphthalen-1-yl)-1H-imidazol-2-ylthio)acetamido)propanoic acid], for which, in data set [3], the “Total Urinary Excretion % of dose” value was 26 % of dose, the “Urinary Distribution (%) 0-6 h” value is listed as 63%, the “Urinary Distribution (%) 6-12 h” value is on record as 30% and the “Urinary Distribution (%) 12-24 h” value is reported as 7%. Besides, the EC50 in data set [1] was in the range of 1 to 30 µM.

Take `C[C@H](NC(=O)CSc1ncc(Br)n1-c1ccc(C#N)c2ccccc12)C(=O)O` [Example 8, (2S)-2-(2-(5-bromo-1-(4-cyanonaphthalen-1-yl)-1H-imidazol-2-ylthio)acetamido)propanoic acid]: in data set [3], the “Total Urinary Excretion % of dose” value was 8 % of dose, the “Urinary Distribution (%) 0-6 h” value turned out to be 63%, the “Urinary Distribution (%) 6-12 h” value was 32% and the “Urinary Distribution (%) 12-24 h” value is 5%. For the same compound, in data set [4] (PO 3 mg/kg, male rats), the concentration peaked (Cmax) at 110 ng/mL, the time to peak (Tmax) came to 1 h, the half-life was 2.99 h and the Clast is 0.371 ng/mL. Also, in data set [4] (setting [6]), the “AUC t = 0_6, share in brackets” value is “(69%)”; the “AUC t = 12_24, share in brackets” value is “(13%)”; the “AUC t = _12, share in brackets” value is “(17%)”. Moreover, the AUC(0-t) in data set [4] (setting [7]) turned out to be 339 ng·h/mL. Also, the AUC(0-t) in data set [4] (setting [8]) is 488 ng·h/mL. Also, the AUC(0-t) in data set [4] (setting [9]) stood at 65.2 ng·h/mL. Besides, in data set [4] (setting [10]), the AUC(0-t) was 83.9 ng·h/mL. In data set [1], the concentration giving a half-maximal response (EC50) is over 30 µM.

As for `CC(C)[C@H](NC(=O)CSc1ncc(Br)n1-c1ccc(C#N)c2ccccc12)C(=O)O` [Example 9, (2S)-2-(2-(5-bromo-1-(4-cyanonaphthalen-1-yl)-1H-imidazol-2-ylthio)acetamido)-3-methylbutanoic acid], in data set [3], the “Total Urinary Excretion % of dose” value was 1 % of dose, the “Urinary Distribution (%) 0-6 h” value amounted to 66%, the “Urinary Distribution (%) 6-12 h” value came to 26% and the “Urinary Distribution (%) 12-24 h” value amounted to 9%. In data set [4] (PO 3 mg/kg, male rats), the peak concentration (Cmax) was determined as 25.8 ng/mL, the Tmax is 2.67 h, the half-life is 2.69 h and the Clast was 4.69 ng/mL. For the same compound, in data set [4] (setting [6]), the “AUC t = 0_6, share in brackets” value was “(49%)”; the “AUC t = 12_24, share in brackets” value was “(15%)”; the “AUC t = _12, share in brackets” value is listed as “(36%)”. For the same compound, the AUC(0-t) in data set [4] (setting [7]) turned out to be 91.5 ng·h/mL. The AUC(0-t) in data set [4] (setting [8]) is 187 ng·h/mL. Also, the AUC(0-t) in data set [4] (setting [9]) was found to be 28.2 ng·h/mL. For the same compound, the AUC(0-t) in data set [4] (setting [10]) was 67.7 ng·h/mL. The compound also had an EC50 in data set [1] of 1 to 30 µM.

In data set [1], `N#Cc1ccc(-n2c(Br)cnc2SC(F)(F)C(=O)O)c2ccccc12` [Example 10, 2-(5-Bromo-1-(4-cyanonaphthalen-1-yl)-1H-imidazol-2-ylthio)-2,2-difluoroacetic acid] had an EC50 of 0.001 to 1 µM.

Regarding `CCCN(CCC)S(=O)(=O)c1ccc(C(=O)O)cc1` [probenecid], in data set [2], the “individuals treated who fail to achieve reduction of serum uric acid levels<6 mg/dL” value is given as 25-50% and the “individuals who develop intolerance” value is “one-third”.

The values above are taken from patent US8193234B2, “Compounds, compositions and methods of using same for modulating uric acid levels” (Ardea Biosciences, Inc., priority 2008, dated 2012).
